Test results published in paper PMC10819888, “Benzimidazole-Based Derivatives as Apoptotic Antiproliferative Agents: Design, Synthesis, Docking, and Mechanistic Studies” (Molecules, 2024).
Read-outs that look alike come from different tables or passages of the source.

Experiments:
[1] = test system: SR; assay: NCI-60 five-dose assay; type: cell-based, human; details: SR (Leukemia), 48 h; for GI50 / CC50: Homo sapiens; for GI50: read-out: GI50 Conc. per Cell Line; for CC50: read-out: LC50 (the source's name)
[2] = test system: ACHN; assay: NCI-60 five-dose assay; type: cell-based, human; details: ACHN (Renal Cancer), 48 h; for GI50 / CC50: Homo sapiens; for GI50: read-out: GI50 Conc. per Cell Line; for CC50: read-out: LC50 (the source's name)
[3] = test system: SF-539; assay: NCI-60 five-dose assay; type: cell-based, human; details: SF-539 (CNS Cancer), 48 h; for GI50 / CC50: Homo sapiens; for GI50: read-out: GI50 Conc. per Cell Line; for CC50: read-out: LC50 (the source's name)
[4] = test system: PC-3; assay: NCI-60 five-dose assay; type: cell-based, human; details: PC-3 (Prostate Cancer), 48 h; for GI50: read-out: GI50 Conc. per Cell Line
[5] = test system: TK-10; assay: NCI-60 five-dose assay; type: cell-based, human; details: TK-10 (Renal Cancer), 48 h; for GI50 / CC50: Homo sapiens; for GI50: read-out: GI50 Conc. per Cell Line; for CC50: read-out: LC50 (the source's name)
[6] = test system: HT29; assay: NCI-60 five-dose assay; type: cell-based, human; details: HT29 (Colon Cancer), 48 h; for GI50 / CC50: Homo sapiens, HT-29; for GI50: read-out: GI50 Conc. per Cell Line; for CC50: read-out: LC50 (the source's name)
[7] = test system: NCI/ADR-RES; assay: NCI-60 five-dose assay; type: cell-based, human; details: NCI/ADR-RES (Ovarian Cancer), 48 h; for GI50 / CC50: Homo sapiens; for GI50: read-out: GI50 Conc. per Cell Line; for CC50: read-out: LC50 (the source's name)
[8] = test system: UO-31; assay: NCI-60 five-dose assay; type: cell-based, human; details: UO-31 (Renal Cancer), 48 h; for GI50 / CC50: Homo sapiens; for GI50: read-out: GI50 Conc. per Cell Line; for CC50: read-out: LC50 (the source's name)
[9] = test system: Non-Small Cell Lung Cancer subpanel; assay: NCI-60 five-dose assay, subpanel; type: cell-based, human; details: for GI50: Homo sapiens, Non-Small Cell Lung Cancer, average sensitivity of all subpanel cell lines, read-out: GI50 Subpanel MID b; for GI50 Selectivity Ratio (MID a/MID b): Non-Small Cell Lung Cancer subpanel
[10] = test system: A498; assay: NCI-60 five-dose assay; type: cell-based, human; details: A498 (Renal Cancer), 48 h; for GI50 / CC50: Homo sapiens; for GI50: read-out: GI50 Conc. per Cell Line; for CC50: read-out: LC50 (the source's name)
[11] = test system: SNB-75; assay: NCI-60 five-dose assay; type: cell-based, human; details: SNB-75 (CNS Cancer), 48 h; for GI50 / CC50: Homo sapiens; for GI50: read-out: GI50 Conc. per Cell Line; for CC50: read-out: LC50 (the source's name)
[12] = test system: HL-60(TB); assay: NCI-60 five-dose assay; type: cell-based, human; details: HL-60(TB) (Leukemia), 48 h; for GI50 / CC50: Homo sapiens; for GI50: read-out: GI50 Conc. per Cell Line; for CC50: read-out: LC50 (the source's name)
[13] = test system: Colon Cancer subpanel; assay: NCI-60 five-dose assay, subpanel; type: cell-based, human; details: for GI50 Selectivity Ratio (MID a/MID b): Colon Cancer subpanel; for GI50: Homo sapiens, Colon Cancer, average sensitivity of all subpanel cell lines, read-out: GI50 Subpanel MID b
[14] = test system: HOP-62; assay: NCI-60 five-dose assay; type: cell-based, human; details: HOP-62 (Non-Small Cell Lung Cancer), 48 h; for GI50 / CC50: Homo sapiens; for GI50: read-out: GI50 Conc. per Cell Line; for CC50: read-out: LC50 (the source's name)
[15] = test system: OVCAR-3; assay: NCI-60 five-dose assay; type: cell-based, human; details: OVCAR-3 (Ovarian Cancer), 48 h; for GI50 / CC50: Homo sapiens; for GI50: read-out: GI50 Conc. per Cell Line; for CC50: read-out: LC50 (the source's name)
[16] = test system: Prostate Cancer subpanel; assay: NCI-60 five-dose assay, subpanel; type: cell-based, human; details: for GI50: Homo sapiens, Prostate Cancer, average sensitivity of all subpanel cell lines, read-out: GI50 Subpanel MID b; for GI50 Selectivity Ratio (MID a/MID b): Prostate Cancer subpanel
[17] = test system: M14; assay: NCI-60 five-dose assay; type: cell-based, human; details: M14 (Melanoma), 48 h; for GI50 / CC50: Homo sapiens; for GI50: read-out: GI50 Conc. per Cell Line; for CC50: read-out: LC50 (the source's name)
[18] = test system: SK-MEL-5; assay: NCI-60 five-dose assay; type: cell-based, human; details: SK-MEL-5 (Melanoma), 48 h; for GI50 / CC50: Homo sapiens; for GI50: read-out: GI50 Conc. per Cell Line; for CC50: read-out: LC50 (the source's name)
[19] = test system: SK-MEL-2; assay: NCI-60 five-dose assay; type: cell-based, human; details: SK-MEL-2 (Melanoma), 48 h; for GI50: read-out: GI50 Conc. per Cell Line
[20] = test system: full panel of 60 human tumor cell lines; assay: NCI-60 five-dose assay, full panel; type: cell-based
[21] = test system: MDA-MB-435; assay: NCI-60 five-dose assay; type: cell-based, human; details: MDA-MB-435 (Melanoma), 48 h; for GI50 / CC50: Homo sapiens; for GI50: read-out: GI50 Conc. per Cell Line; for CC50: read-out: LC50 (the source's name)
[22] = test system: U251; assay: NCI-60 five-dose assay; type: cell-based, human; details: U251 (CNS Cancer), 48 h; for GI50 / CC50: Homo sapiens, U-251; for GI50: read-out: GI50 Conc. per Cell Line; for CC50: read-out: LC50 (the source's name)
[23] = test system: NCI-H322M; assay: NCI-60 five-dose assay; type: cell-based, human; details: NCI-H322M (Non-Small Cell Lung Cancer), 48 h; for GI50 / CC50: Homo sapiens; for GI50: read-out: GI50 Conc. per Cell Line; for CC50: read-out: LC50 (the source's name)
[24] = test system: MDA-MB-231; assay: NCI-60 five-dose assay; type: cell-based, human; details: MDA-MB-231 (Breast Cancer), 48 h; for GI50 / CC50: Homo sapiens; for GI50: read-out: GI50 Conc. per Cell Line; for CC50: read-out: LC50 (the source's name)
[25] = test system: Breast Cancer subpanel; assay: NCI-60 five-dose assay, subpanel; type: cell-based, human; details: for GI50 Selectivity Ratio (MID a/MID b): Breast Cancer subpanel; for GI50: Homo sapiens, Breast Cancer, average sensitivity of all subpanel cell lines, read-out: GI50 Subpanel MID b
[26] = test system: BT-549; assay: NCI-60 five-dose assay; type: cell-based, human; details: BT-549 (Breast Cancer), 48 h; for GI50 / CC50: Homo sapiens; for GI50: read-out: GI50 Conc. per Cell Line; for CC50: read-out: LC50 (the source's name)
[27] = average sensitivity of all cell lines, read-out: MID a (GI50)
[28] = five-dose assay, range over cell lines, read-out: GI50 range over the examined cell lines

O=C(NN=Cc1ccc([N+](=O)[O-])cc1)c1ccc2[nH]c(-c3ccc(Cl)cc3)nc2c1 [Compound 4c, N′-(4-Nitrobenzylidene)-2-(4-chlorophenyl)-1H-benzimidazole-5-carbohydrazide]
GI50 [1]: 0.566 µM | CC50 [1]: > 100 µM | TGI [1]: 4.87 µM | TGI [2]: 31.90 µM | GI50 [2]: 4.36 µM | CC50 [2]: > 100 µM | GI50 [3]: 2.73 µM | CC50 [3]: 33.8 µM | TGI [3]: 10.10 µM | GI50 ([4]; Homo sapiens): 0.42 µM | TGI [4]: 15.30 µM | GI50 [5]: 8.99 µM | CC50 [5]: > 100 µM | TGI [5]: 40.23 µM | TGI [6]: >100 µM | GI50 [6]: 3.02 µM | CC50 [6]: > 100 µM | GI50 [7]: 12.6 µM | CC50 [7]: > 100 µM | TGI [7]: >100 µM | GI50 [8]: 6.05 µM | CC50 [8]: > 100 µM | TGI [8]: 38.30 µM | GI50 [9]: 3.52 µM | GI50 Selectivity Ratio (MID a/MID b) [9]: 0.93 | TGI [10]: 7.75 µM | GI50 [10]: 2.4 µM | CC50 [10]: 36.4 µM | GI50 [11]: 2.78 µM | CC50 [11]: > 100 µM | TGI [11]: 18.00 µM | TGI [12]: 5.73 µM | GI50 [12]: 0.797 µM | CC50 [12]: > 100 µM | GI50 Selectivity Ratio (MID a/MID b) [13]: 1.30 | GI50 [13]: 2.53 µM | TGI [14]: 30.80 µM | GI50 [14]: 6.42 µM | CC50 [14]: > 100 µM | GI50 [15]: 3.25 µM | CC50 [15]: 40.9 µM | TGI [15]: 8.23 µM | GI50 [16]: 2.2 µM | GI50 Selectivity Ratio (MID a/MID b) [16]: 1.49 | GI50 [17]: 2.73 µM | CC50 [17]: 67.1 µM | TGI [17]: 9.13 µM | GI50 [18]: 2.11 µM | CC50 [18]: 12.8 µM | TGI [18]: 4.78 µM | GI50 ([19]; Homo sapiens): 5.1 µM | TGI [19]: 21.90 µM | GI50 [20, 27]: 3.28 µM | GI50 [20, 28]: 0.42 to 8.99 µM | GI50 [21]: 3.57 µM | CC50 [21]: 47.6 µM | TGI [21]: 12.20 µM | GI50 [22]: 2.92 µM | CC50 [22]: 48 µM | TGI [22]: 10.80 µM | GI50 [23]: 5.04 µM | CC50 [23]: > 100 µM | TGI [23]: 26.40 µM | GI50 [24]: 3.75 µM | CC50 [24]: 69.1 µM | TGI [24]: 13.90 µM | GI50 Selectivity Ratio (MID a/MID b) [25]: 1.31 | GI50 [25]: 2.5 µM | TGI [26]: 9.70 µM | GI50 [26]: 2.84 µM | CC50 [26]: 50.5 µM

O=C(NN=Cc1ccc(Cl)cc1)c1ccc2[nH]c(-c3ccc(Cl)cc3)nc2c1 [Compound 4e, N′-(4-Chlorobenzylidene)-2-(4-chlorophenyl)-1H-benzimidazole-5-carbohydrazide]
GI50 [1]: 1.01 µM | CC50 [1]: 37 µM | TGI [1]: 3.95 µM | TGI [2]: 3.17 µM | GI50 [2]: 1.73 µM | CC50 [2]: 5.78 µM | GI50 [3]: 1.7 µM | CC50 [3]: 5.93 µM | TGI [3]: 3.17 µM | LC50 ([4]; Homo sapiens): 7.05 µM | GI50 ([4]; Homo sapiens): 1.55 µM | TGI [4]: 3.30 µM | GI50 [5]: 2.06 µM | CC50 [5]: 8.98 µM | TGI [5]: 4.30 µM | TGI [6]: 5.47 µM | GI50 [6]: 1.97 µM | CC50 [6]: 44.1 µM | GI50 [7]: 1.83 µM | CC50 [7]: 12.7 µM | TGI [7]: 4.43 µM | GI50 [8]: 1.57 µM | CC50 [8]: 5.67 µM | TGI [8]: 2.99 µM | GI50 [9]: 1.9 µM | GI50 Selectivity Ratio (MID a/MID b) [9]: 0.94 | TGI [10]: 4.94 µM | GI50 [10]: 1.74 µM | CC50 [10]: 19.6 µM | GI50 [11]: 1.59 µM | CC50 [11]: 8.22 µM | TGI [11]: 3.62 µM | TGI [12]: 6.53 µM | GI50 [12]: 1.85 µM | CC50 [12]: 54.8 µM | GI50 Selectivity Ratio (MID a/MID b) [13]: 1.04 | GI50 [13]: 1.72 µM | TGI [14]: 4.10 µM | GI50 [14]: 1.8 µM | CC50 [14]: 9.32 µM | GI50 [15]: 1.84 µM | CC50 [15]: 6.28 µM | TGI [15]: 3.39 µM | GI50 [16]: 1.65 µM | GI50 Selectivity Ratio (MID a/MID b) [16]: 1.08 | GI50 [17]: 1.65 µM | CC50 [17]: 8.96 µM | TGI [17]: 3.84 µM | GI50 [18]: 1.81 µM | CC50 [18]: 6.33 µM | TGI [18]: 3.39 µM | LC50 ([19]; Homo sapiens): 11.4 µM | GI50 ([19]; Homo sapiens): 2.09 µM | TGI [19]: 4.64 µM | GI50 [20, 27]: 1.79 µM | LC50 ([20]; five-dose assay, range over cell lines): 5.73 to 77.9 µM | GI50 [20, 28]: 0.97 to 4.93 µM | GI50 [21]: 1.73 µM | CC50 [21]: 6.49 µM | TGI [21]: 3.35 µM | GI50 [22]: 2.1 µM | CC50 [22]: 8.35 µM | TGI [22]: 4.18 µM | GI50 [23]: 2.15 µM | CC50 [23]: 19.8 µM | TGI [23]: 5.26 µM | GI50 [24]: 1.85 µM | CC50 [24]: 7.67 µM | TGI [24]: 3.77 µM | GI50 Selectivity Ratio (MID a/MID b) [25]: 0.79 | GI50 [25]: 2.27 µM | TGI [26]: 2.13 µM | GI50 [26]: 4.93 µM | CC50 [26]: 75.8 µM
